This is an account of results in patent EP2345639A1, “Cyclic hydroxylamine derivatives, their preparation and use as antioxidants” (ABIOGEN PHARMA S.p.A., priority 2009, dated 2011).

Each structure is given as a SMILES string.

The subject of one data set is healthy animals. The data set can be described thus: Effect of the compounds on healthy animals (same in vivo assay, cerebral oxidative parameters). More on the design: species or system mice. As to conditions: healthy mice; for Average % variation with respect to the vehicle: 50 mg/kg IP for three consecutive days, mean over all parameters, D = doxorubicin alone; for Brain/BWi / CAT/pr / GPX/pr / GSH/pr / GST/pr / Prot. Hmg / Prot. Ox/pr / SOD/pr: 50 mg/kg IP x3 days, percentage change relative to the vehicle. On the procedure:
(§1) 10 mice were used for each treatment group. For each compound 50 mg/kg were administered intraperitoneally (IP) for three consecutive days (day 0, 1 and 2); half the animals (5) also received IP 16.7 mg/kg of doxorubicin immediately after the first treatment (day 0). On the day after the last administration (day 3) the animals were killed by neck dislocation and the brains were removed, weighed and frozen in liquid nitrogen.
(§2) For the analyses of oxidative stress, 100 mg/ml of brain homogenate was prepared in HEB^(*) buffer (pH 7.4 EDTA/HEPES^(**)) containing a mixture of enzyme inhibitors (Leupeptin, Pepstatin, Aprotinin, BHA).
(§3) The evaluation parameters were: • BrW/BWi: ratio between final brain weight and initial body weight (day 0); • Prot. Hmg: total proteins in the homogenate (BCA method, i.e. bicinchoninic acid); • Prot. Ox: oxidized proteins in the Hmg by means of a colorimetric method using dinitrophenylhydrazone (DNPH); • GSH: reduced glutathione in the supernatant (sn) of the Hmg, obtained after precipitation with metaphosphoric acid (MPA), by means of a colorimetric method using dithiodinitrobenzene (DTNB); • CAT: catalase in the Hmg by a colorimetric method using potassium dichromate; • SOD: superoxide dismutase by a colorimetric method using SOD Reagent (xanthine, EDTA, nitroblue tetrazole, Na2CO3, BSA, i.e. bovine serum albumin); • GST: glutathione S-transferase in the supernatant by a colorimetric method using chlorodinitrobenzene (CDNB) and GSH; and • GPx: glutathione peroxidase in the supernatant after addition of GSH and t-BuOOH, heating and precipitation with MPA; followed by GSH method with DTNB. The assay was performed on the compounds (1)-(5) and (7)-(11) and on edaravone (E), as comparative compound.
The mean % effect, on all the parameters simultaneously, of the triple treatment in healthy animal, as mean percentage change relative to the vehicle. This value is useful as an approximate safety index of the oxidative state of the brain, i.e. the capacity of the compounds of the invention not to alter cerebral homeostasis in healthy animals.

The subject of data set [1] is C6 cells (rat glioma) and BAEC cells (bovine aortic endothelial). In words: In vitro inhibition of CHP-induced oxidative stress (DCF fluorescence). Format: cell-based. The note with it: 500 µM CHP, 4, 20, 100 and 500 µM compound, 30 minutes; depending on the concentrations and cell line. On the procedure:
The method used was essentially the one reported by Rüweler M. et al. ("Inhibition of peroxide-induced radical generation by plant polyphenols in C6 astroglioma cells" (2008) Toxicol in vitro 22, 1377-81), with a few minor modifications.
The cells were seeded in phenol-red free DMEM (Sigma Aldrich) into 96-well plates with 5% FBS and 20 mM HEPES at a density of 40,000 cells/well. After 48 hours, the medium was substituted by HBSS (Hanks' Balanced Salt Solution, Sigma) containing 10 µM of dihydro-2',7'-dichlorofluorescein diacetate (H2DCF-DA, Sigma Aldrich) and incubated in darkness for 30 minutes at 37 °C, in order to load the cells with fluorescent dye. H2DCF-DA was hydrolyzed enzymatically by the intracellular esterases to form non-fluorescent H2DCF, which was then rapidly oxidized to form 2',7'-dichlorofluorescein (DCF) being highly fluorescent in the presence of reactive species (RS). The intensity of DCF fluorescence is directly proportional to the amount of RS formed.
After carrying out two washes, the cells were exposed to 500 µM of CHP and various concentrations (4, 20, 100 and 500 µM) of the compounds of the invention for 30 minutes at 37 °C. Fluorescence was then measured, after cell washing, by a microplate reader at an excitation wavelength of 485 nm and an emission wavelength of 535 nm.
Six wells per plate per concentration of test composition (compound + CHP) and per control (HBSS without CHP) were measured and 12 wells were used as reference for CHP-induced stress. In addition, each 96-well plate contained 6 wells that received the highest concentration of the tested compounds without CHP, to investigate whether the compounds of the invention alone were able to induce cellular radical formation.
When using this assay, it should be borne in mind that DCF fluorescence is a generalized indicator of oxidative stress rather than of any particular reactive species, i.e. it is not a direct assay for H2O2 or other reactive species (Halliwell B, Whiteman M. (2004) "Measuring reactive species and oxidative damage in vivo and in cell culture: how should you do it and what do the results mean?" Br. J. Pharmacol. 142 231-255). Therefore, when an increase in DCF fluorescence induced by exposure of cells to CHP was measured, as was carried out in these assays, it was not possible to deduce which reactive species was responsible. Inhibition of CHP-induced fluorescence was evaluated by means of different concentrations of the compounds of the invention and comparative compounds such as Trolox and edaravone.

A short description of data set [2]: Acid dissociation constants (pKa) by titration. Format: physicochemical. The note with it: pH at semi-neutralization point of titration with 0.1 N NaOH or HCl. On the procedure:
The following equipment was used during the implementation of all the examples: • for melting point determination a Buchi B-540 instrument was used; • the pKa is the pH at the semi-neutralization point of titration using a Mettler Toledo DL-50 instrument with a 0.1 N NaOH or HC! solution; • the ^1H-NMR spectra were recorded at 300 MHz and the ^13C-NMR spectra were recorded at 75 MHz using a Varian Unity 300 instrument; • spectrophotometric measurements were carried out using a Lambda Perkin Elmer 15 UV/Vis spectrophotometer for the DPPH assay and a Wallac Victor 1420 multilabel counter spectrophotometer.

The nature of data set [3]: Brain-to-plasma concentration ratio in mice. As to conditions: female, CD-1, mouse, ip, 25 mg/kg intraperitoneal, area under the curve of brain and plasma concentrations 0 to 60 minutes, read-out: B/P ratio. Format: in vivo, Female CD-1 mice.
Procedure: The ability of the compounds of the invention to penetrate the brain was investigated by measuring their brain/plasma (B/P) ratio in mice following intraperitoneal administration.
Female CD-1 mice were used (n=3 for each time period) and received the compounds of the invention by intraperitoneal administration, in 25 mg/kg doses in a 0.5% NaHCO3 buffer (pH 8.3). At predefined intervals following said administration, i.e. 5, 15, 30 and 60 minutes, the mice were killed and both plasma and total brain tissue were collected.
Specifically, after anaesthesia with ether, the animals were bled by blood withdrawal from the abdominal aorta then immediately decapitated. The blood samples were collected into plasma separator tubes containing Li-Heparin as anticoagulant and centrifuged. The resulting plasma was then stored at -20 °C. The brain was rapidly removed from the cranium and weighed, subsequently frozen and stored at -20 °C before treatment by homogenization and HPLC analysis.
The plasma was thawed and mixed with an equal volume of the extraction solution.
1 ml of solution was then extracted by adding 20 µl of 70% HClO4, then centrifuged at 15,500g for 5 minutes and injected into the HPLC.
Each brain was thawed and homogenized with the extraction solution to provide a final composition of 4 ml/1g of tissue by means of an Ultra-Turrax blender and sonicated for 5 minutes. After centrifugation of the homogenate at 15,500g for 5 minutes, the resulting solution was treated with HClO4, as indicated for the plasma. Specific chromatographic conditions had been developed for each analyte, the calibration curve being constructed for plasma and brain homogenate.
Data set [4] is described as follows: TEAC method (Trolox Equivalent Antioxidant Capacity Assay). As to conditions: ratio of gradient to gradient of Trolox; 650 nm, 37 °C, about 90 minutes. Type of data set: biochemical. The source says:
This assay is used to measure the total antioxidant activity of pure substances, biological fluids and plant compounds and is based on the reaction of antioxidants with the cation radical ABTS·^+ (2,2'-azinobis(3-ethylbenzothiazolin-6-sulphonate)). This cation radical is metastable and has to be generated just before the experiment by reacting ABTS with hydrogen peroxide in the presence of HRP. This radical can be reduced, with consequent loss of absorbance, by an antioxidant whose scavenging capacity can be measured spectrophotometrically at 650 nm. The test is carried out at 37 °C and the results are obtained from a comparison with Trolox (a synthetic antioxidant and hydrophilic analogue of vitamin E).
The ABTS solution S1 was prepared as follows: • 20 mg of ABTS were added to 50 mM of citric acid buffer (40 ml) at pH=4.5 and to the resulting solution there was added an aqueous solution of HRP (4.4 mg, 400 µl) and an aqueous solution of H2O2 (10 µl of a 30% solution diluted with 16.3 ml of water).
For each of the compounds (1)-(11), as synthesized above, there was prepared a 600 µM solution in water, methanol or DMSO according to its solubility, as well as a Trolox solution as reference.
Each solution was diluted to produce 6 solutions each at a concentration between 25 µM and 300 µM. From each of the diluted and divided solutions, there were withdrawn 20 µl to which 200 µl of solution S1 were then added.
The decrease in absorbance of each solution thus obtained was monitored at 650 nm until a stable value was reached (about 90 minutes).
For each set of 6 solutions and for the reference trolox solution, the absorption was given in graph form as a function of the amount of compound (nmol) in the solution. The gradient of the straight line obtained by linear interpolation was determined according to the least squares method. The TEAC value of each compound of the invention is given in the table below and is expressed as the ratio between the gradient of the resulting straight line and the gradient of the reference (trolox) straight line.

Data set [5] relates to doxorubicin-induced cerebral oxidative stress in mice. The data set can be described thus: In vivo assay of cerebral oxidative stress induced in mice by doxorubicin (model and oxidized animals). The note with it: % incidence of D relative to V. As for the experimental part:
The assay was carried out on compounds (1)-(5) and (7)-(11) and on edaravone (E) as comparative compound.
as §1, §2, §3
The mean effect (n=5 experiments) of doxorubicin (D), i.e. "oxidized" animal, relative to the vehicle (V), the vehicle representing the healthy animal.
All the parameters, with the exclusion of Brain/BWi and Prot. Hmg, were normalized for total Hmg proteins. The D value standard deviations and the % incidence relative to V are given in italics.
The effect of the tested compounds on the "oxidized" animals was given as % inhibition relative to the percentage change due to doxorubicin alone. The effect of the compounds on the oxidized animals can be expressed both as a function of the values of the vehicle (healthy, vehicle only) and as a function of the value of its own (healthy, compound only): • Vehicle: percentage [(Compound+D)/V]x100/[(V+D)/V]x100 • Its own: percentage [(Compound+D)/Compound]x100/[(V+D)/V]x100
Again in this case, the mean % effect relative to doxorubicin alone could be given for all the parameters simultaneously, as an approximate index of effectiveness on the cerebral oxidative state of the animal.

As for `CC1(C)CC(=O)C(C2CC(C)(C)CCN2O)C(=O)C1` (centres unmarked) [(1), 2-(1-hydroxy-4,4-dimethylpiperidin-2-yl)-5,5-dimethylcyclohexane-1,3-dione], the “Average % variation with respect to the vehicle” value (shortened to “Average % variation”) in the data set with healthy animals is given as -7.0%. Also, the “Inhibition of CHP-induced fluorescence” value in data set [1] is listed as “effective”. In data set [2], the pKa1 is listed as 3.35 and the pKa2 worked out at 6.83. In addition, the Kp in data set [3] was above 0.1. Also, the TEAC in data set [4] stood at 1.0.
Consider `CC1(C)CCN(O)C(C2C(=O)CC(c3ccccc3)CC2=O)C1` (centres unmarked) [(2), 2-(1-hydroxy-4,4-dimethylpiperidin-2-yl)-5-phenylcyclohexane-1,3-dione], for which the “Average % variation” value with healthy animals (50 mg/kg) is given as “did not significantly alter the parameters”. In the data set with healthy animals (listed as V+(2), 50 mg/kg), the “Average % variation” value was found to be 3.6%. Besides, in the data set on healthy animals, the Brain/BWi is on record as 7.6%, the CAT/pr is recorded as -2.9%, the GPX/pr stood at 6.6% and the GSH/pr was 6.1%. Also, in the data set on healthy animals, the GST/pr stood at 5.8%, the “Prot. Hmg” value is on record as -2.2%, the “Prot. Ox/pr” value is -3.7% and the SOD/pr was -0.2%. Besides, in data set [2], the pKa1 worked out at 3.21 and the pKa2 was 6.85. In data set [3], the Kp is above 0.1. The TEAC in data set [4] is 0.6.
In data set [2], `O=C1CCCC(=O)C1C1COCCN1O` (centres unmarked) [(6), 2-(4-hydroxymorpholin-3-yl)-cyclohexane-1,3-dione] returned a pKa1 of 3.00 and a pKa2 of 6.39. In data set [4], the TEAC turned out to be 1.1.
On to `Cc1cc(O)c(C2COCCN2O)c(=O)o1` (centres unmarked) [(9), 4-hydroxy-3-(4-hydroxymorpholin-3-yl)-6-methyl-2H-pyran-2-one], for which the “Average % variation” value in the data set on healthy animals is on record as -9.9%. In data set [2], this compound yielded a pKa1 of 2.85 and a pKa2 of 5.71. The TEAC in data set [4] came out at 1.2.
For `Cc1c(C)c2c(c(C)c1O)CCC(C)(C(=O)O)O2` (centres unmarked) [Trolox, reference compound], the “Inhibition of CHP-induced fluorescence” value in data set [1] is 10-50%.
Consider `COc1cccc2c1C(=O)c1c(O)c3c(c(O)c1C2=O)C[C@@](O)(C(=O)CO)C[C@@H]3O[C@H]1C[C@H](N)[C@H](O)[C@H](C)O1` [doxorubicin, reference compound], for which, in the data set with healthy animals, the “Average % variation” value was -11.4%, the CAT/pr is -13.2%, the GPX/pr was -9.9% and the GSH/pr is -12.5%. Moreover, in the data set with healthy animals, the GST/pr is recorded as -9.1%, the “Prot. Hmg” value is 8.3%, the “Prot. Ox/pr” value is recorded as 17.2% and the SOD/pr is on record as -14.3%. Moreover, the Brain/BWi in the data set on healthy animals (50 mg/kg) came to 6.9%. For the same compound, the Brain/BWi with healthy animals (listed as D, 50 mg/kg) was -6.9%. Further, in data set [5], the “%D Brain/BWi” value is recorded as 93.1%, the “%D CAT” value stood at 86.8%, the “%D GPX” value is 90.1% and the “%D GSH” value is given as 87.5%. Moreover, in data set [5], the “%D GST” value was found to be 90.9%, the “%D Prot. Hmg” value stood at 108.3%, the “%D Prot. Ox” value is recorded as 117.2% and the “%D SOD” value amounted to 85.7%.
Consider `O=C1O[C@H]([C@@H](O)CO)C(O)=C1O` [vitamin C, reference compound], for which the TEAC in data set [4] is reported as 0.9.
